The results in this text go back to PMC4926070, “Cembranoids from a Chinese Collection of the Soft Coral Lobophytum crassum” (Marine Drugs, 2016).

By IC50 is commonly meant the point on the concentration scale where inhibition reaches its midpoint. As a reminder, the CC50 is the concentration giving 50% cytotoxicity.

Structures are written as SMILES. Read-outs that look alike come from different tables or passages of the source.

For data set [1], the system named is LPS-induced NO production in mouse peritoneal macrophages (PEMФ). Description: Inhibition of lipopolysaccharide (LPS)-induced nitric oxide (NO) production. It is filed as cell-based. To be noted: Peritoneal macrophage, compounds tested at 1–30 μM, read-out: IC50, inhibitory activity against LPS-induced NO production. The method, then:
All compounds were tested for their in vitro anti-inflammatory activities. Nitric oxide (NO) is an important signaling molecule that is involved in the regulation of diverse physiological and pathological processes. Overproduction of NO is associated with various human diseases, particularly acute and chronic inflammation, while the level of NO can reflect the degree of inflammation.
(§1) A previously established protocol was followed except that 30 mM dexamethasone in DMSO was used as the positive control and each test compound (30 mM in DMSO) was diluted to 1–30 μM at r.t. before the experiment.

Data set [2] can be described thus: Cytotoxicity against mouse peritoneal macrophages. It is filed as cell-based. As for the experimental part:
as §1

Setting [3] is: mouse peritoneal macrophages, read-out: CC50, cytotoxicity against mouse peritoneal macrophages.

Turning to `COC(=O)C1=CCCC2(C)OC2CCC(C(=O)OC)=CC=C(C(C)C)CC1` (stereo not shown) [Compound 1, Locrassumin A], the concentration for half-maximal inhibition (IC50) in data set [1] stood at 17 ± 3 µM. For the same compound, in data set [2] (setting [3]), the half-maximal cytotoxic concentration (CC50) is > 60 µM.
As for `COC1(C)CC=CC(C)(O)CCC2=C(C)COC2C=C(C)CCC1O` (stereo not drawn) [Compound 7, (2R*,7R*,8S*,12S*,1Z,3E,10E)-8-methoxy-2,16-epoxycembra-1(15),3,10-trien-7,12-diol], the half-maximal inhibitory concentration (IC50) in data set [1] amounted to 13 ± 2 µM. For the same compound, the CC50 in data set [2] (setting [3]) is > 60 µM.
As to `CC1=C2CC/C(C)=C/CC[C@@]3(C)O[C@@H]3CC/C(C)=C/[C@H]2OC1=O` [Compound 12, ent-sarcophine], in data set [1], the IC50 is 24 ± 2 µM. Besides, in data set [2], the cytotoxic concentration (CC50) was > 60 µM.
As to `COC(=O)/C1=C\CC[C@@]2(C)O[C@@H]2CC/C(C(=O)OC)=C/C=C(/C(C)C)CC1` [Compound 13, sarcophytonolide O], the half-maximal inhibitory concentration (IC50) in data set [1] worked out at 8 ± 1 µM. Also, the CC50 in data set [2] (setting [3]) is > 60 µM.
In the same order, the values of `COC(=O)/C1=C\C=C(\C(C)C)CCC2=CCC[C@](C)(OC2=O)C(=O)CC1` [Compound 17, ketoemblide] are 12 ± 2 µM and > 60 µM.
